What was measured:
Giant Salvinia = test: Leaf-blade droplet bioassay on giant salvinia; type: in vivo, Salvinia molesta; conditions: for Activity against Giant Salvinia: 8 μL of 1% solution on lower leaf surface
Procedure: The three plants in the first container served as control without any treatment, three plants in the second container were treated with 1% DMSO, three plants in the third container were treated with 5% DMSO, three plants in the fourth container were treated with 0.5% Dyne-Amic®, and the plants in each of the other four containers were treated with each of the four testing isolates, respectively. For each of the three plant in the 0.5% Dyne-Amic® treatment, 8 μL of 0.5% Dyne-Amic® was applied on the lower surface of each of the two mature leaf blades close to the terminal bud by pipet and 8 μL of 0.5% Dyne-Amic® was applied on the upper surface (with trichomes) of each of the two other mature leaf blades close to the terminal bud by pipet. For all three plants in each of the DMSO or testing isolates treatment containers, 8 μL of each experimental solution was applied on the lower surface of each of the two mature leaf blades close to the terminal bud by pipet.

[1] = test system: human tumor cells or normal cells; conditions: Li, et al., 2013; cited from earlier work
A. palmeri = test: Leaf droplet bioassay on A. palmeri seedlings; type: in vivo, Amaranthus palmeri; conditions: 10 μL 0.5% glyphosate
Procedure: Bioassays: The experimental plants were 3-week-old A. palmeri seedlings germinated from the seeds collected from the above described glyphosate-resistant plants. The seedlings were grown in pots with Miracle Grow Potting Mix soil in the greenhouse (30° C. during the day time and 20° C. at night). The intact seedling plants of 3-week old Q. texana and 2-month-old L. styraciflua grown in pots in greenhouse were also tested in this experiment. […] The leaf surfaces of the experimental plants were checked daily for two weeks by a ×60 portable microscope linked to an iPhone™.

T. sebifera seedlings = test: Droplet test and foliar spray of fractions on Chinese tallow seedlings; parameters: species or system Triadica sebifera; conditions: in vivo
Excerpt: The leaf surfaces of the experimental plants were checked daily for two weeks by a ×60 portable microscope linked to an iPhone™.

SMILES | Activity against Giant Salvinia (Giant Salvinia) | leaf injury during the two weeks of observation (Giant Salvinia; 8 μL/leaf, 1% solution) | cytotoxicity against human tumor cells or normal cells [1] | also measured
CC(=O)/C=C/[C@@]12O[C@]1(C)C[C@@H](O)CC2(C)C [compound 3, Annuionone D] | No activity | no or slight injury | did not show any cytotoxicity | –
CC(=O)/C=C/[C@H]1C(C)=C[C@H](O)CC1(C)C | – | – | did not show any cytotoxicity | –
CC(=O)/C=C/[C@@]1(O)C(C)=CC(=O)CC1(C)C [compound 4, Dehydrovomifoliol] | No activity | no or slight injury | did not show any cytotoxicity | –
O=C(O)CNCP(=O)(O)O [glyphosate] | – | – | – | leaf injury (A. palmeri): no injury
CC(=O)/C=C/C1=C(C)C[C@@H](O)CC1(C)C [compound 1, (+)-3-Hydroxy-β-ionone] | Potent activity | – | did not show any cytotoxicity | leaves dead by the end of experiment (of six) (Giant Salvinia; 8 μL/leaf, 1% solution): two leaves were dead; time to significant injury of the six treated leaf blades (Giant Salvinia; 8 μL/leaf, 1% solution, lower surface): ≤ 12 h; time to death of lower surface contact tissues (FIG. 1) (Giant Salvinia; applied on the lower surface of the leaf blade): ≤ 12 h
CC(=O)/C=C/[C@H]1C(C)=C[C@H](O)CC1(C)C [compound 2, (3R,6R,7E)-3-hydroxy-4,7-megastigmadien-9-one] | Weak activity | no or slight injury | – | –
COc1c(OC)c(OC)c2oc(=O)ccc2c1OC [5,6,7,8-Tetramethoxycoumarin, 5,6,7,8-tetramethoxycoumarin] | – | – | – | endocidal activity in the droplet test (T. sebifera seedlings): showed endocidal activity
